Laboratory results reported in patent US20040204340A1, “Polyprolyl inhibitors of cyclophilin” (Guilford Pharmaceuticals, Inc., priority 2003, published 2004).

Tested on: cultured chick sensory neurons from dorsal root ganglia
Experiment: Chick dorsal root ganglion cultures and neurite outgrowth
Assay type: cell-based
Details: 1 mM, 48 h after treatment (FIGS. 4, 5)
Procedure: Dorsal root ganglia were dissected from chick embryos of ten day gestation. Whole ganglion explants were cultured on thin layer Matrigel-coated 12 well plates with Liebovitz L15 plus high glucose media supplemented with 2 mM glutamine and […], and also containing 10 μM cytosine 9-D arabinofuranoside (Ara C) at 37° C. in an environment containing 5% CO2. Twenty-four hours later, the DRGs were treated with various concentrations of nerve growth factor, immunophilin ligands or combinations of NFG plus drugs. Forty-eight hours after drug treatment, the ganglia were visualized under phase contrast or Hoffman Modulation contrast with a Zeiss Axiovert inverted microscope. Photomicrographs of the explants were made, and neurite outgrowth was quantitated. Neurites longer than the DRG diameter were counted as positive, with total number of neurites quantitated per each experimental condition. Three to four DRGs are cultured per well, and each treatment was performed in duplicate.

Substance	Promotion of neurite outgrowth (neurotrophic effects)
Ac-Pro-Ala-Pro-Ala-NH2 (Ac-PAPA-NH2)	potent neurotrophic effects
Ac-Pro-Gly-Pro-Phe-NH2 (Ac-PGPF-NH2)	powerful neurotrophic effects
